Test results as given in paper PMC6199744, “Development of Chemical Proteomics for the Folateome and Analysis of the Kinetoplastid Folateome” (ACS Infectious Diseases, 2018).

Experiments:
[1] = tested on: NGG1 INTERACTING FACTOR 3-LIKE (Tb427tmp.02.5000); type: binding; settings: multitargeted bead mixture; free ligand 100 μM; T. brucei lysate; Tb427tmp.02.5000
[2] = target: GLYCERALDEHYDE 3-PHOSPHATE DEHYDROGENASE, GLYCOSOM (TB427.06.4300) (Trypanosoma brucei brucei, UniProt P22512); experiment: Multitargeted bead mixture competition; type: binding, T. brucei
[3] = tested on: PEPTIDYL-PROLYL CIS-TRANS ISOMERASE (CYCLOPHILIN- (TB427TMP.211.1350)); experiment: Multitargeted bead mixture competition; type: binding; settings: free ligand 100 μM, T. brucei lysate
[4] = tested on: LMJF.26.2560 (hypothetical conserved ATP binding protein); experiment: Individual MTX bead pull down; settings: L. major
[5] = tested on: LMJF.30.2970 (glyceraldehyde-3-phosphate dehydrogenase, GAPDH); experiment: Individual MTX bead pull down; type: binding; settings: L. major
[6] = target: DIHYDROFOLATE REDUCTASE-T[…] (TB427.07.5480) (Trypanosoma brucei brucei, UniProt Q27783); experiment: Multitargeted bead mixture competition; type: binding; settings: T. brucei lysate
methylene-THF-reductase = methylene-THF-reductase (Homo sapiens, UniProt P42898); experiment: Multitargeted bead mixture competition, HeLa cell extract; type: binding; settings: bead mixture; HeLa cell extract
[7] = tested on: IRON/ASCORBATE OXIDOREDUCTASE FAMILY PROTEIN, PUTA (Tb427.02.6180); experiment: Multitargeted bead mixture competition; type: binding, T. brucei; settings: multitargeted bead mixture; free ligand 100 μM; T. brucei lysate; Tb427.02.6180
TB11.03.0290 = experiment: Multitargeted bead mixture competition; type: binding, T. brucei; settings: multitargeted bead mixture; free ligand 100 μM; T. brucei lysate; TB11.03.0290
[8] = tested on: HYPOTHETICAL PROTEIN, CONSERVED (Tb427.10.6100); experiment: Multitargeted bead mixture competition; type: binding; settings: free ligand 100 μM, T. brucei lysate
[9] = tested on: HYPOTHETICAL PROTEIN, CONSERVED (TB427.03.2670); experiment: Multitargeted bead mixture competition; type: binding; settings: free ligand 100 μM, T. brucei lysate
TB927.8.6460 = experiment: Multitargeted bead mixture competition; type: binding, T. brucei; settings: multitargeted bead mixture; free ligand 100 μM; T. brucei lysate; TB927.8.6460
DHFR-TS = DHFR-TS (Trypanosoma brucei brucei, UniProt Q27783); experiment: Individual bead pull down with competing free ligand; settings: competing free ligand 100 μM; bead = immobilized compound of the row; T. brucei lysate; read-out: % Inhibition of protein binding to bead, DHFR-TS, T. brucei
Source text: (§1) Antifolate compounds were immobilized onto NHS-activated sepharose beads/reverse sepharose beads through amide coupling via either an amino or carboxyl group (see Figure 3). The reaction was monitored by observing the disappearance of test compound by LCMS, after which the unreacted coupling sites were capped with NHS-acetate or aminoethanol.
(§2) Folate metabolizing enzymes are not highly abundant proteins,[19],[20] potentially making their identification by MS difficult. Beads will not only pull down the low abundant high affinity binders but also attract highly abundant, low affinity binders or so-called nonspecific binders. Sometimes, the nonspecific high abundant proteins can mask true binders. The target identification approach used in this study overcomes this issue by performing competition studies. Various concentrations of the free unmodified inhibitor (test compound) were preincubated with the lysate, prior to addition of the beads derivatized with immobilized compounds. Following washing of the bound proteins from the beads and tryptic digest, the peptides were labeled using the TMTs and then pooled. Differences in peptide abundance were analyzed by fragmentation of the isotope-coded isobaric tags in the MS/MS spectra (Figure 5).[9],[11],[12],[21] While the competition experiments with test compound confirm specific binding, it is also possible that some proteins will have a stronger binding interaction with the derivatized beads than the competing test compound, due to subtle differences in the interactions between the immobilized compound and the test compound with the target protein.

PTR-1 = PTR-1 (Trypanosoma brucei brucei, UniProt O76290); experiment: as above; settings: competing free ligand 100 μM; bead = immobilized compound of the row; T. brucei lysate; read-out: % Inhibition of protein binding to bead, PTR-1, T. brucei
Source text: as §1, §2

[10] = tested on: BRANCHED-CHAIN AMINO ACID AMINOTRANSFERASE, PUTATI (TB427.02.4590); experiment: Multitargeted bead mixture competition; type: binding; settings: free ligand 100 μM, T. brucei lysate
[11] = target: PTERIDINE REDUCTASE (TB927.8.2210) (Trypanosoma brucei brucei, UniProt O76290); experiment: Multitargeted bead mixture competition; type: binding, T. brucei; settings: T. brucei lysate
TB427.04.1870 = experiment: Multitargeted bead mixture competition; type: binding; settings: free ligand 100 μM, T. brucei lysate
TB927.8.6760 = experiment: Multitargeted bead mixture competition; type: binding; settings: free ligand 100 μM, T. brucei lysate
[12] = tested on: ACETYLTRANSFERASE, PUTATIVE (Tb427.08.3310); experiment: Multitargeted bead mixture competition; type: binding; settings: free ligand 100 μM, T. brucei lysate
[13] = tested on: PROTEIN KINASE, PUTATIVE (Tb427.03.1570); experiment: Multitargeted bead mixture competition; type: binding; settings: free ligand 100 μM, T. brucei lysate
[14] = tested on: SUCCINYL-COA SYNTHETASE ALPHA SUBUNIT, PUTATIVE (Tb427.03.2230); experiment: Multitargeted bead mixture competition; type: binding; settings: free ligand 100 μM, T. brucei lysate
[15] = tested on: CHOLINE KINASE (TB427TMP.18.0017); experiment: Multitargeted bead mixture competition; type: binding, T. brucei; settings: multitargeted bead mixture; free ligand 100 μM; T. brucei lysate; TB427TMP.18.0017 CHOLINE KINASE
TB927.7.1340 = experiment: Multitargeted bead mixture competition; type: binding; settings: free ligand 100 μM, T. brucei lysate
TB09.211.1690 = experiment: Multitargeted bead mixture competition; type: binding; settings: free ligand 100 μM, T. brucei lysate
[16] = tested on: PHOSPHATIDYLINOSITOL-4-PHOSPHATE 5-KINASE, PUTATIV (TB427.10.3890); experiment: Multitargeted bead mixture competition; type: binding; settings: free ligand 100 μM, T. brucei lysate
[17] = tested on: HYPOTHETICAL PROTEIN, CONSERVED (TB427.05.3680); experiment: Multitargeted bead mixture competition; type: binding; settings: free ligand 100 μM, T. brucei lysate

Chain of UniProt P22512 (P22512 whole entry): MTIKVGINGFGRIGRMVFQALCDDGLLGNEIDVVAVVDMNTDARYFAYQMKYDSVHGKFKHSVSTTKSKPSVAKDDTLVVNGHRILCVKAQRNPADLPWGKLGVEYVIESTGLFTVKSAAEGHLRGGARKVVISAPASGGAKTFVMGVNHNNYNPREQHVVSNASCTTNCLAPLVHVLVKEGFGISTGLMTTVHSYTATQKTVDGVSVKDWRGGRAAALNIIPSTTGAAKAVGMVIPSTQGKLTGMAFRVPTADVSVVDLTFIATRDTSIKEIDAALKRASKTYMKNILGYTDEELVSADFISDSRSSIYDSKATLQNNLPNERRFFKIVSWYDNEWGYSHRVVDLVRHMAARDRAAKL
Chain of PTERIDINE REDUCTASE (TB927.8.2210) (O76290 entry or part of it): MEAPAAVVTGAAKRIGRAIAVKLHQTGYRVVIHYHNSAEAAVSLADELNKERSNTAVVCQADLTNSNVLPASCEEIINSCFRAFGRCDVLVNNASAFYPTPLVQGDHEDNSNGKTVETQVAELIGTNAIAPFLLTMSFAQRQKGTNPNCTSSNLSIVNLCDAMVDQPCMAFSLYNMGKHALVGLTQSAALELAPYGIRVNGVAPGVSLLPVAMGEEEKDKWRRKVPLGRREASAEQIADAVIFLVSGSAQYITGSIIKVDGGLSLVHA
Chain of UniProt Q27783 (Q27783 whole entry): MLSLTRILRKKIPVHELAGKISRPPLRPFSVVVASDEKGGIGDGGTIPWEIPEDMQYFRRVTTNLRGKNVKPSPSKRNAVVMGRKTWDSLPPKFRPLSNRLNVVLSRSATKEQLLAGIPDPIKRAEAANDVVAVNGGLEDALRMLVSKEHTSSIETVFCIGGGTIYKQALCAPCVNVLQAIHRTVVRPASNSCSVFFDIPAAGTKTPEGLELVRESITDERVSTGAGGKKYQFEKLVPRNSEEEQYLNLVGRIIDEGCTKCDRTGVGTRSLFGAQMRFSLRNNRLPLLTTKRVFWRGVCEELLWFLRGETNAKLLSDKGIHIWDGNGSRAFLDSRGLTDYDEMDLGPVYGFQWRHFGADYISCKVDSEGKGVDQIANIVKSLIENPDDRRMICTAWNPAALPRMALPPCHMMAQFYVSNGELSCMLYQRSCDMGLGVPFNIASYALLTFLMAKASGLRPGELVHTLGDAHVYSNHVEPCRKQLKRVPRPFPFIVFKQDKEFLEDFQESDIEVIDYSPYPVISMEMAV
Chain of methylene-THF-reductase (P42898 whole entry): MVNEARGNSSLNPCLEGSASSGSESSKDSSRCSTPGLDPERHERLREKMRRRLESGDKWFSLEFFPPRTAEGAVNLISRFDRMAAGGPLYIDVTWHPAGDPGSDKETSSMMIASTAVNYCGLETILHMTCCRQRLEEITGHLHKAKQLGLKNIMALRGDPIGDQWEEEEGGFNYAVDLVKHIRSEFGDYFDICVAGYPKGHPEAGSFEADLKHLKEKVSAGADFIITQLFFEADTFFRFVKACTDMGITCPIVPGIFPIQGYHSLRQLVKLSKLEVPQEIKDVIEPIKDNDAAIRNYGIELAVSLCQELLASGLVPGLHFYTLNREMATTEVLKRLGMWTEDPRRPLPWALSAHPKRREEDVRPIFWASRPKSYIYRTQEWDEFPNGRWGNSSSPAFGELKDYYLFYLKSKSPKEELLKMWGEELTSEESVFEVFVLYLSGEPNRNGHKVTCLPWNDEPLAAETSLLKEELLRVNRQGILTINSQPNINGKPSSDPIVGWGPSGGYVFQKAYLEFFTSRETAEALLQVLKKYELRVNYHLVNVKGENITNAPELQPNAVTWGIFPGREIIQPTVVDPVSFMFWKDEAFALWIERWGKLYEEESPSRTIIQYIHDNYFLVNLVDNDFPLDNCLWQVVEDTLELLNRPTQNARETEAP
Chain of PTR-1 (O76290 entry or part of it): as the sequence (O76290 entry or part of it) above
Chain of DHFR-TS (Q27783 whole entry): as the sequence (Q27783 whole entry) above

**Q.** With CN(Cc1cnc2nc(N)nc(N)c2n1)c1ccc(C(=O)N[C@@H](CCC(=O)O)C(=O)O)cc1 [MTX, methotrexate] as the molecule, how does the “percentage of competition from bead binding” value (from here on “percentage of competition”) [1] read?
**A.** Its value is 31%.

**Q.** What about the “binding to GAPDH (Tb427.06.4300)” value ([2]; bead mixture, T. brucei lysates) of the same molecule?
**A.** The value was “bound”.

**Q.** And the “percentage of competition” value ([2]; multitargeted bead mixture, free ligand 100 μM, T. brucei lysate, TB427.06.4300 GAPDH)?
**A.** Its value is 56%.

**Q.** What about the “percentage of competition” value [3] of the same molecule?
**A.** Its value is 50%.

**Q.** And the “binding of LMJF.26.2560 to MTX” value [4]?
**A.** Its value is “bind to MTX”.

**Q.** What about the “binding of LMJF.30.2970 (GAPDH) to MTX” value [5] of the same molecule?
**A.** The value was “bind to MTX”.

**Q.** And the “competition for DHFR-TS (Figure 6)” value ([6]; bead mixture, compound 100 μM)?
**A.** The value was “compete for DHFR-TS”.

**Q.** And the “percentage of competition” value ([6]; multitargeted bead mixture, free ligand 100 μM, TB427.07.5480 DHFR-TS)?
**A.** The value was 85%.

**Q.** And the “inhibition, methylene-THF-reductase” value (methylene-THF-reductase)?
**A.** The value was 77%.

**Q.** What about the “percentage of competition” value [7] of the same molecule?
**A.** Its value is 17%.

**Q.** What about the “percentage of competition” value (TB11.03.0290) of the same molecule?
**A.** The value was 57%.

**Q.** And the “percentage of competition” value [8]?
**A.** Its value is 23%.

**Q.** And the “percentage of competition” value [9]?
**A.** The value was 50%.

**Q.** And the “percentage of competition” value (TB927.8.6460)?
**A.** The value was 54%.

**Q.** And the inhibition at 100 µM (DHFR-TS)?
**A.** The inhibition at 100 µM was 95%.

**Q.** What about the inhibition at 100 µM (PTR-1) of the same molecule?
**A.** The inhibition at 100 µM was 90%.

**Q.** What about the “percentage of competition” value [10] of the same molecule?
**A.** Its value is 34%.

**Q.** And the “competition for PTR1 (Figure 6)” value ([11]; bead mixture, compound 100 μM)?
**A.** Its value is “competed for PTR1”.

**Q.** And the “percentage of competition” value ([11]; multitargeted bead mixture, free ligand 100 μM, TB927.8.2210 PTERIDINE REDUCTASE)?
**A.** The value was 93%.

**Q.** And the “percentage of competition” value (TB427.04.1870)?
**A.** The value was 58%.

**Q.** And the “percentage of competition” value (TB927.8.6760)?
**A.** Its value is 50%.

**Q.** What about the “percentage of competition” value [12] of the same molecule?
**A.** The value was 31%.

**Q.** What about the “percentage of competition” value [13] of the same molecule?
**A.** Its value is 9%.

**Q.** And the “percentage of competition” value [14]?
**A.** The value was 18%.

**Q.** What about the “percentage of competition” value [15] of the same molecule?
**A.** The value was 57%.

**Q.** What about the “percentage of competition” value (TB927.7.1340) of the same molecule?
**A.** Its value is 51%.

**Q.** And the “percentage of competition” value (TB09.211.1690)?
**A.** The value was 51%.

**Q.** And the “percentage of competition” value [16]?
**A.** Its value is 56%.

**Q.** And the “percentage of competition” value [17]?
**A.** The value was 69%.
